# Biological target: T1, recombinant hRIPK2 protein (kinase domain aa 1-299-His-tagged) (Homo sapiens, UniProt O43353)
# T1 construct: kinase domain aa 1-299-His-tagged; purchased Life Technologies PR7829A
# Experiment: RIPK2 AlphaLISA assay (displacement of bead-bound CZC-8004 from hRIPK2)
# Format: binding
# Settings: recombinant hRIPK2 kinase domain 10 nM, 2 h at 23° C.
# Excerpt: RIPK2 AlphaLISA® Assay (Amplified Luminescent Proximity Homogeneous Assay)
# A non-specific kinase inhibitor (CZC-8004 Cayman #916603-07-1) bound to an acceptor bead (#6772001 PerkinElmer) was mixed to the recombinant hRIPK2 protein (kinase domain aa 1-299-His-tagged—Life Technologies PR7829A) and a Ni2+-tagged donor beads (#AS101D PerkinElmer). In the presence of an inhibitor, the compound beads displacement from hRIPK2 was followed by signal loss. In a 384-well ProxiPlate@ (Perkin Elmer, 6008280) add:
# 2 μL RIPK2 inhibitor (in DMSO 0.8%).
# 2 μL human recombinant RIPK2 (10 nM diluted in AlphaLISA buffer 1×).
# 4 μL Mix of […] 1/1000 in AlphaLISA buffer 1×.
# Homogenize using a microtiter plate shaker and incubate for 2 h at 23° C.
# Read using EnVision®-Alpha Reader (PerkinElmer) according to manufacturer specifications.
# T1 sequence (O43353 1-299): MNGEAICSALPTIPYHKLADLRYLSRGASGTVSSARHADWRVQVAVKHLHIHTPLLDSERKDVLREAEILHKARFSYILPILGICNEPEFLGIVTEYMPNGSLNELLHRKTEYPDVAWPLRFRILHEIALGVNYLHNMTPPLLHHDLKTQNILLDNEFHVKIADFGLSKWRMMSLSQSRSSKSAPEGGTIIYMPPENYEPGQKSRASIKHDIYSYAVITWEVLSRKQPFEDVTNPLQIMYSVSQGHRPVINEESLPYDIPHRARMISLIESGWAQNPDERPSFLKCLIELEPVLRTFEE
row,SMILES,IC50
1,"COCC1C[C@H]2COc3ccn4ncc(c4n3)-c3cc(F)cc(c3)NCCN2C1=O (single isomer, unassigned) [Example 31]",< 0.01 µM
2,"COCC1C[C@H]2COc3ccn4ncc(c4n3)-c3cc(F)cc(c3)NCCN2C1=O (single isomer, unassigned) [Example 32]",< 0.01 µM
3,"COCc1cc2cc(c1)-c1cnn3cc(C)c(nc13)OC[C@@H]1CC(OC)C(=O)N1CCN2 (single isomer, unassigned) [Example 65, (12R or S,14S)-12-methoxy-4-(methoxymethyl)-18-methyl-16-oxa-7,10,20,21,24-pentaazapenta cyclo[15.5.2.1^2,6.0^10,14.0^20,23]pentacosa-1(23),2,4,6(25),17(24), 18,21-heptaen-11-one]",< 0.01 µM
4,"COCc1cc2cc(c1)-c1cnn3cc(C)c(nc13)OC[C@@H]1CC(OC)C(=O)N1CCN2 (single isomer, unassigned) [Example 66, (12R or S,14S)-12-methoxy-4-(methoxymethyl)-18-methyl-16-oxa-7,10,20,21,24-pentaazapenta cyclo[15.5.2.1^2,6.0^10,14.0^20,23]pentacosa-1(23),2,4,6(25),17(24), 18,21-heptaen-11-one]",< 0.01 µM
5,"CO[C@@H]1CC2(C)COc3ccn4ncc(c4n3)-c3cc(F)cc(c3)NCCN2C1=O (single isomer, unassigned) [Example 85]",0.1 to 11 µM
6,"COc1cn2ncc3c2nc1OC[C@@H]1C[C@@H](OC)C(=O)N1CCNc1cc-3cc(C(F)(F)F)c1 [Example 2, (12R,14S)-12,18-dimethoxy-4-(trifluoromethyl)-16-oxa-7,10,20,21,24-pentaazapentacyclo[15.5.2.1^2,6.0^10,^14.0^20,^23]pentacosa-1(23),2(25),3,5,17(24),18,21-heptaen-11-one]",< 0.01 µM
7,"CO[C@@H]1C[C@H]2COc3ccn4ncc(c4n3)-c3cc(Cl)cc(c3)NCCN2C1=O [Example 4, (12R,14S)-4-chloro-12-methoxy-16-oxa-7,10,20,21,24-pentaazapentacyclo[15.5.2.1^2,6.0^10,^14.0^20,^23]pentacosa-1(23),2(25),3,5,17(24),18,21-heptaen-11-one]",< 0.01 µM
8,"COc1cc2cc(c1)-c1cnn3ccc(nc13)OC[C@@H]1C[C@@H](OC)C(=O)N1CCN2 [Example 5, (12R,14S)-4,12-d i methoxy-16-oxa-7,10,20,21,24-pentaazapentacyclo[15.5.2.1^2,6.0^10,^14.0^20,^23]pentacosa-1(23),2(25),3,5,17(24),18,21-heptaen-11-one]",< 0.01 µM
9,"CCO[C@@H]1C[C@H]2COc3ccn4ncc(c4n3)-c3cc(cc(OC)c3)NCCN2C1=O [Example 6, (12R,14S)-12-ethoxy-4-methoxy-16-oxa-7,10,20,21,24-pentaazapentacyclo[15.5.2.1^2,6.0^10,^14.0^20,^23]pentacosa-1(23),2,4,6(25),17(24),18,21-heptaen-11-one]",< 0.01 µM
10,"CCOc1cc2cc(c1)-c1cnn3ccc(nc13)OC[C@@H]1C[C@@H](OC)C(=O)N1CCN2 [Example 7, (12R,14S)-4-ethoxy-12-methoxy-16-oxa-7,10,20,21,24-pentaazapentacyclo[15.5.2.1^2,6.0^10,^14.0^20,^23]pentacosa-1(23),2(25),3,5,17(24),18,21-heptaen-11-one]",< 0.01 µM
11,"CO[C@@H]1C[C@H]2COc3ccn4ncc(c4n3)-c3cc(cc(OC(C)C)c3)NCCN2C1=O [Example 8, (12R,14S)-12-methoxy-4-(propan-2-yloxy)-16-oxa-7,10,20,21,24-pentaazapentacyclo[15.5.2.1^2,6.0^10,^14.0^20,^23]pentacosa-1(23),2,4,6(25),17(24),18,21-heptaen-11-one]",< 0.01 µM
12,"CC(C)O[C@@H]1C[C@H]2COc3ccn4ncc(c4n3)-c3cc(F)cc(c3)NCCN2C1=O [Example 9, (12R,14S)-4-fluoro-12-(propan-2-yloxy)-16-oxa-7,10,20,21,24-pentaazapentacyclo[15.5.2.1^2,6.0^10,^14.0^20,^23]pentacosa-1(23),2,4,6(25),17(24),18,21-heptaen-11-one]",< 0.01 µM
13,"O=C1[C@H](OC2CCC2)C[C@H]2COc3ccn4ncc(c4n3)-c3cc(F)cc(c3)NCCN12 [Example 10, (12R,14S)-12-cyclobutoxy-4-fluoro-16-oxa-7,10,20,21,24-pentaazapentacyclo[15.5.2.1^2,6.0^10,^14.0^20,^23]pentacosa-1(23),2,4,6(25),17(24),18,21-heptaen-11-one]",< 0.01 µM

# Next, values leading:
row,IC50,SMILES
1,< 0.01 µM,"[2H]C([2H])([2H])Oc1cc2cc(c1)-c1cnn3ccc(nc13)OC[C@@H]1C[C@@H](OCCOC)C(=O)N1CCN2 (racemic) [Example 95, (12R,14S)-4-(^2H3)methoxy-12-(2-methoxyethoxy)-16-oxa-7,10,20,21,24-pentaazapentacyclo[15.5.2.1^2,6.0^10,^14.0^20,^23]pentacosa-1(23),2(25),3,5,17(24),18,21-heptaen-11-one]"
2,< 0.01 µM,"COCCO[C@@H]1C[C@H]2COc3ccn4ncc(c4n3)-c3cc(cc(OC(F)F)c3)NCCN2C1=O (racemic) [Example 111, (12R,14S)-4-(difluoromethoxy)-12-(2-methoxyethoxy)-16-oxa-7,10,20,21,24-pentaazapentacyclo[15.5.2.1^2,6.0^10,^14.0^20,^23]pentacosa-1(23),2(25),3,5,17(24),18,21-heptaen-11-one]"
3,< 0.01 µM,"CCOc1cc2cc(c1)-c1cnn3ccc(nc13)OC[C@@H]1C[C@@H](OCCOC)C(=O)N1CCN2 (racemic) [Example 112, (12R,14S)-4-ethoxy-12-(2-methoxyethoxy)-16-oxa-7,10,20,21,24-pentaazapentacyclo[15.5.2.1^2,6.0^10,^14.0^20,^23]pentacosa-1(23),2(25),3,5,17(24),18,21-heptaen-11-one]"
4,0.01 to 0.1 µM,"COCCO[C@@H]1C[C@H]2COc3ccn4ncc(c4n3)-c3cc(cc(OC(C)C)c3)NCCN2C1=O (racemic) [Example 113, (12R,14S)-12-(2-methoxyethoxy)-4-(propan-2-yloxy)-16-oxa-7,10,20,21,24-pentaazapentacyclo[15.5.2.1^2,6.0^10,^14.0^20,^23]pentacosa-1(23),2(25),3,5,17(24),18,21-heptaen-11-one]"
5,< 0.01 µM,"COCCO[C@@H]1C[C@H]2COc3ccn4ncc(c4n3)-c3cc(C#N)cc(c3)NCCN2C1=O (racemic) [Example 114, (12R,14S)-12-(2-methoxyethoxy)-11-oxo-16-oxa-7,10,20,21,24-pentaazapentacyclo[15.5.2.1^2,6.0^10,^14.0^20,^23]pentacosa-1(23),2,4,6(25),17(24),18,21-heptaene-4-carbonitrile]"
6,< 0.01 µM,"COCCO[C@@H]1C[C@H]2COc3ccn4ncc(c4n3)-c3cc(Cl)cc(c3)NCCN2C1=O (racemic) [Example 116, (12R,14S)-4-chloro-12-(2-methoxyethoxy)-16-oxa-7,10,20,21,24-pentaazapentacyclo[15.5.2.1^2,6.0^10,^14.0^20,^23]pentacosa-1(23),2,4,6(25),17(24),18,21-heptaen-11-one]"
7,< 0.01 µM,"COCCO[C@@H]1C[C@H]2COc3nc4c(cnn4cc3OC)-c3cc(cc(OC)c3)NCCN2C1=O (racemic) [Example 117, (12R,14S)-4,18-dimethoxy-12-(2-methoxyethoxy)-16-oxa-7,10,20,21,24-pentaazapentacyclo[15.5.2.1^2,6.0^10,^14.0^20,^23]pentacosa-1(23),2,4,6(25),17(24),18,21-heptaen-11-one]"
8,< 0.01 µM,"C#Cc1cc2cc(c1)-c1cnn3ccc(nc13)OC[C@@H]1C[C@@H](OCCOC)C(=O)N1CCN2 (racemic) [Example 118, (12R,14S)-4-ethynyl-12-(2-methoxyethoxy)-16-oxa-7,10,20,21,24-pentaazapentacyclo[15.5.2.1^2,6.0^10,^14.0^20,^23]pentacosa-1(23),2(25),3,5,17(24),18,21-heptaen-11-one]"
9,0.01 to 0.1 µM,"CO[C@@H]1C[C@H]2C(C)Oc3ccn4ncc(c4n3)-c3cc(F)cc(c3)NCCN2C1=O (relative stereo) [Example 103, E1-(12R,14S,15R*)-4-fluoro-12-methoxy-15-methyl-16-oxa-7,10,20,21,24-pentaazapentacyclo[15.5.2.1^2,6.0^10,^14.0^20,^23]pentacosa-1(23),2,4,6(25),17(24),18,21-heptaen-11-one]"
10,< 0.01 µM,"CO[C@@H]1CC2(C)COc3ccn4ncc(c4n3)-c3cc(F)cc(c3)NCCN2C1=O (single isomer, unassigned) [Example 86]"
11,< 0.01 µM,"COc1cc2cc(c1)-c1cnn3ccc(nc13)OC[C@@H]1C[C@@H](OC)C(=O)N1CC(C)N2 (single isomer, unassigned) [Example 105, (8R*,12R,14S)-4,12-dimethoxy-8-methyl-16-oxa-7,10,20,21,24-pentaazapentacyclo[15.5.2.1^2,6.0^1°,^14.0^2°,^23]pentacosa-1(23),2,4,6(25),17(24),18,21-heptaen-11-one]"
12,0.01 to 0.1 µM,"COc1cc2cc(c1)-c1cnn3ccc(nc13)OC[C@@H]1C[C@@H](OC)C(=O)N1CC(C)N2 (single isomer, unassigned) [Example 106, (8R*,12R,14S)-4,12-dimethoxy-8-methyl-16-oxa-7,10,20,21,24-pentaazapentacyclo[15.5.2.1^2,6.0^1°,^14.0^2°,^23]pentacosa-1(23),2,4,6(25),17(24),18,21-heptaen-11-one]"

# — patent publication US12630563B2, “Macrocyclic RIP2-kinase inhibitors” (Oncodesign S.A., priority 2020, dated 2026)
